In this assay the target is T1, human D3 dopamine receptor (Homo sapiens, UniProt P35462).
T1 construct: expressed in transfected cells; host or cells: HEK-293 EBNA cells (transient transfection; membrane preparation)
In words: Radioligand binding assay ([3H]-spiperone) on membranes of HEK-293 EBNA cells expressing human D3 receptor. Conditions: [3H]-spiperone approx. 0.5 nM, 1 h at RT, cloned human D3 in HEK-293 EBNA membranes; Ki by Cheng-Prusoff. Here is the method:
The ability of the compounds to bind to the D3 receptors was determined using radioligand binding to cloned receptors selectively expressed in HEK-293 EBNA cells.
HEK-293 EBNA cells were transiently transfected with expression plasmids encoding for the human D3 dopamine receptor. The cells were harvested 48 h post-transfection, washed three times with cold PBS and stored at −80° C. prior to use. The pellet was suspended in cold 50 mM
Tris-HCl buffer containing 10 mM EDTA (pH 7.4) and homogenized with a Polytron (Kinematica AG, Basel, Switzerland) for 20-30 sec at 12.000 rpm. After centrifugation at 48.000×g for 30 min at 4° C., the pellet was resuspended in cold 10 mM Tris-HCl buffer containing 0.1 mM EDTA (pH 7.4), homogenized, and centrifuged as above. This pellet was further resuspended in a smaller volume of ice cold 10 mM Tris-HCl buffer containing 0.1 mM EDTA (pH 7.4) and homogenized with a Polytron for 20-30 sec at 12.000 rpm. The protein content of this homogenate was determined with the Bio-Rad (Bradford) Protein Assay (Biorad Laboratories GmbH, München, Germany) according to the instructions of the manufacturer using gamma globulin as the standard.
This homogenate was stored at −80° C. in aliquots and thawed immediately prior to use.
Aliquots of membrane preparations were thawed at RT, resuspended in assay buffer (50 mM Tris-HCl, 120 mM NaCl, 5 mM MgCl2, 1 mM EDTA, 5 mM KCl, 1.5 mM CaCl2, pH=7.4), homogenized with a Polytron for 20-30 sec at 12.000 rpm and adjusted to a final concentration of approximately 7.5 μg protein/well.
The binding affinity (Ki) of the compounds was determined using radioligand binding. Membranes were incubated in a total volume of 200 μl with a fixed concentration of radioligand (final concentration approximately 0.5 nM [^3H]-spiperone) and ten concentrations of test compound in ranging between 10 μM-0.1 nM for 1 h at RT. At the end of the incubation, the reaction mixtures were filtered on to unifilter 96-well white microplates with bonded GF/C filters (Packard BioScience, Zurich, Switzerland; preincubated for 1 h in 0.1% polyethylenimine (PEI) in assay buffer) with a Filtermate 196 harvester (Packard BioScience) and washed 3 times with cold assay buffer. The nonspecific binding was determined with equally composed reaction mixtures in the presence of 10 μM unlabelled spiperone. Per well 45 μl of Microscint 40 (Perkin Elmer, Schwerzenbach, Switzerland) was added, plates for sealed, shaken for 20 min and counted for 3 min on a Topcount Microplate Scintillation Counter (Canberra Packard SA, Zürich, Switzerland) with quenching correction.
The CPM value for each duplicate of a concentration of competing compound was averaged (y1), then the % specific binding was calculated according to the equation (((y1−non-specific)/(total binding-non-specific))×100). Graphs were plotted with the % specific binding using XLfit, a curve fitting program that iteratively plots the data using Levenburg Marquardt algorithm. The single site competition analysis equation used was y=A+((B−A)/(1+((x/C)^D))), where y is the % specific binding, A is the minimum y, B is the maximum y, C is the IC50, x is the log10 of the concentration of the competing compound and D is the slope of the curve (the Hill Coefficient). From these curves the IC50 (inhibition concentration at which 50% specific binding of the radioligand was displaced) and Hill coefficient were determined. The affinity constant (Ki) was calculated using the Cheng-Prusoff equation Ki=(IC50/1+([L]/Kd), where [L] is the concentration of radioligand and Kd is the dissociation constant of the radioligand at the receptor as determined by the saturation isotherm.

A word on the Ki: it is the dissociation constant of the complex between target and ligand, obtained from inhibition or displacement.

T1 sequence (P35462 whole entry): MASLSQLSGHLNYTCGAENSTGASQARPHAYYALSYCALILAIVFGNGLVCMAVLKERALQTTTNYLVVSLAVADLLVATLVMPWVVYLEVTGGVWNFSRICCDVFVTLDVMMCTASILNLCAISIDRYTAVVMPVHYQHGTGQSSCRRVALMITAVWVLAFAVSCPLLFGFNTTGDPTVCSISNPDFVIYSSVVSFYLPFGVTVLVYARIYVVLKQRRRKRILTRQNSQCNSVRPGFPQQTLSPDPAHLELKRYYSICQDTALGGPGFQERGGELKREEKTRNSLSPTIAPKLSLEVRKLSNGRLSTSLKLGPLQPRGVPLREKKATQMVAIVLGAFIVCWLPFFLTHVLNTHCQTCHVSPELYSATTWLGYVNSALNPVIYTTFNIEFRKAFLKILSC

As for `CC(=O)N[C@H]1CC[C@H](CCN2CCN(c3ncc(C(F)(F)F)cc3Cl)CC2)CC1` [Example 1, N-(trans-4-{2-[4-(3-Chloro-5-trifluoromethyl-pyridin-2-yl)-piperazin-1-yl]-ethyl}-cyclohexyl)-acetamide], the Ki was determined as 9.64 nM. For the molecule `COCCC(=O)N[C@H]1CC[C@H](CCN2CCN(c3ncc(C(F)(F)F)cc3Cl)CC2)CC1` [Example 2, N-(trans-4-{2-[4-(3-Chloro-5-trifluoromethyl-pyridin-2-yl)-piperazin-1-yl]-ethyl}-cyclohexyl)-3-methoxy-propionamide], the Ki was 5.66 nM. Turning to `CCC(=O)N[C@H]1CC[C@H](CCN2CCN(c3ncc(C(F)(F)F)cc3Cl)CC2)CC1` [Example 3, N-(trans-4-{2-[4-(3-Chloro-5-trifluoromethyl-pyridin-2-yl)-piperazin-1-yl]-ethyl}-cyclohexyl)-propionamide], the Ki is 16.8 nM. For the molecule `O=C(CC1CC1)N[C@H]1CC[C@H](CCN2CCN(c3ncc(C(F)(F)F)cc3Cl)CC2)CC1` [Example 4, N-(trans-4-{2-[4-(3-Chloro-5-trifluoromethyl-pyridin-2-yl)-piperazin-1-yl]-ethyl}-cyclohexyl)-2-cyclopropyl-acetamide], the Ki was 10.1 nM. In the case of `CC(=O)N[C@H]1CC[C@H](CCN2CCN(c3ncccc3Cl)CC2)CC1` [Example 5, N-(trans-4-{2-[4-(3-Chloro-pyridin-2-yl)-piperazin-1-yl]-ethyl}-cyclohexyl)-acetamide], the Ki came out at 1.7 nM. The figure for `CC(=O)N[C@H]1CC[C@H](CCN2CCN(c3ncc(Cl)cc3Cl)CC2)CC1` [Example 6, N-(trans-4-{2-[4-(3,5-Dichloro-pyridin-2-yl)-piperazin-1-yl]-ethyl}-cyclohexyl)-acetamide] is 9.64 nM; for `CC(=O)N[C@H]1CC[C@H](CCN2CCN(c3ccc(C(F)(F)F)nc3)CC2)CC1` [Example 7, N-(trans-4-{2-[4-(6-Trifluoromethyl-pyridin-3-yl)-piperazin-1-yl]-ethyl}-cyclohexyl)-acetamide] it is 5.66 nM; for `NC(=O)CC(=O)N[C@H]1CC[C@H](CCN2CCN(c3ncc(C(F)(F)F)cc3Cl)CC2)CC1` [Example 8, N-(trans-4-{2-[4-(3-Chloro-5-trifluoromethyl-pyridin-2-yl)-piperazin-1-yl]-ethyl}-cyclohexyl)-malonamide] it is 16.8 nM. To `COc1cccnc1N1CCN(CC[C@H]2CC[C@H](NC(C)=O)CC2)CC1` [Example 9, N-(trans-4-{2-[4-(3-Methoxy-pyridin-2-yl)-piperazin-1-yl]-ethyl}-cyclohexyl)-acetamide] belongs 10.1 nM; to `CC(=O)N[C@H]1CC[C@H](CCN2CCN(c3ccnc(Cl)c3Cl)CC2)CC1` [Example 10, N-(trans-4-{2-[4-(2,3-Dichloro-pyridin-4-yl)-piperazin-1-yl]-ethyl}-cyclohexyl)-acetamide], 1.7 nM.

Source of the values: patent US20100075979A1, “PYRIDINYLPIPERAZIN DERIVATIVES USEFUL AS MODULATORS OF DOPAMINE D3 RECEPTORS” (priority 2008, published 2010).
